# Measurements taken from PubChem BioAssay (NCI).
#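 Interpolation was linear, between the two tested concentrations surrounding the appropriate level; five concentrations were tested over 48 hours in 96-well plates. The concentration for full growth arrest is given as TGI.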
# What was measured:
# Assay in all cases: inhibition of tumour cell growth, NCI panel, 48 h
# NCI-H522 lung = tested on: NCI-H522 lung
# A498 renal = tested on: A498 renal
# K-562 leukemia = tested on: K-562 leukemia
# PC-3 prostate = tested on: PC-3 prostate
# RPMI-8226 leukemia = tested on: RPMI-8226 leukemia
# LOX IMVI melanoma = tested on: LOX IMVI melanoma
# SF-539 CNS = tested on: SF-539 CNS
# HCC-2998 colon = tested on: HCC-2998 colon
# IGROV1 ovarian = tested on: IGROV1 ovarian
# NCI-H460 lung = tested on: NCI-H460 lung
# SNB-19 CNS = tested on: SNB-19 CNS
# HT29 colon = tested on: HT29 colon
# OVCAR-8 ovarian = tested on: OVCAR-8 ovarian
# NCI/ADR-RES ovarian = tested on: NCI/ADR-RES ovarian
# HOP-62 NSCLC = tested on: HOP-62 NSCLC
# UO-31 renal = tested on: UO-31 renal
# KM12 colon = tested on: KM12 colon
# HCT-116 colon = tested on: HCT-116 colon
# MDA-MB-231 breast = tested on: MDA-MB-231 breast
# OVCAR-3 ovarian = tested on: OVCAR-3 ovarian
# SF-295 CNS = tested on: SF-295 CNS
# SK-OV-3 ovarian = tested on: SK-OV-3 ovarian
# SK-MEL-2 melanoma = tested on: SK-MEL-2 melanoma
# MALME-3M melanoma = tested on: MALME-3M melanoma
# CCRF-CEM leukemia = tested on: CCRF-CEM leukemia
# SK-MEL-5 melanoma = tested on: SK-MEL-5 melanoma
# SF-268 CNS = tested on: SF-268 CNS
# A549 NSCLC = tested on: A549 NSCLC
# HCT-15 colon = tested on: HCT-15 colon
# SN12C renal = tested on: SN12C renal
# M14 melanoma = tested on: M14 melanoma
# HL-60(TB) leukemia = tested on: HL-60(TB) leukemia
# U251 CNS = tested on: U251 CNS
# 786-0 renal = tested on: 786-0 renal
# HOP-92 NSCLC = tested on: HOP-92 NSCLC
# HS 578T breast = tested on: HS 578T breast
# UACC-257 melanoma = tested on: UACC-257 melanoma
# SNB-75 CNS = tested on: SNB-75 CNS
# OVCAR-5 ovarian = tested on: OVCAR-5 ovarian
# UACC-62 melanoma = tested on: UACC-62 melanoma
# MDA-MB-435 = tested on: MDA-MB-435
# TK-10 renal = tested on: TK-10 renal
# EKVX NSCLC = tested on: EKVX NSCLC
# SW-620 colon = tested on: SW-620 colon
# SK-MEL-28 melanoma = tested on: SK-MEL-28 melanoma
# T-47D breast = tested on: T-47D breast
# NCI-H23 lung = tested on: NCI-H23 lung
# MDA-N = tested on: MDA-N
# DU-145 prostate = tested on: DU-145 prostate
# NCI-H226 lung = tested on: NCI-H226 lung
# CAKI-1 renal = tested on: CAKI-1 renal
# OVCAR-4 ovarian = tested on: OVCAR-4 ovarian
# RXF 393 renal = tested on: RXF 393 renal
# COLO 205 colon = tested on: COLO 205 colon
# ACHN renal = tested on: ACHN renal
# MCF7 breast = tested on: MCF7 breast
# MOLT-4 leukemia = tested on: MOLT-4 leukemia
# SR leukemia = tested on: SR leukemia
# BT-549 breast = tested on: BT-549 breast
smiles,measurement,setting,value
CCCCCc1cc2c(cc1O)CC[C@@H]1[C@@H]2CC[C@]2(C)[C@@H](O)CC[C@@H]12,TGI,NCI-H522 lung,42.7 µM
same,TGI,A498 renal,36.1 µM
same,TGI,K-562 leukemia,34.9 µM
same,TGI,PC-3 prostate,33.1 µM
same,TGI,RPMI-8226 leukemia,62.2 µM
same,TGI,LOX IMVI melanoma,39.2 µM
same,TGI,SF-539 CNS,39.5 µM
same,TGI,HCC-2998 colon,40 µM
same,TGI,IGROV1 ovarian,36.9 µM
same,TGI,NCI-H460 lung,36.5 µM
same,TGI,SNB-19 CNS,40.3 µM
same,TGI,HT29 colon,41.2 µM
same,TGI,OVCAR-8 ovarian,43 µM
same,TGI,NCI/ADR-RES ovarian,37.7 µM
same,TGI,HOP-62 NSCLC,41.7 µM
same,TGI,UO-31 renal,28.4 µM
same,TGI,KM12 colon,26.1 µM
same,TGI,HCT-116 colon,31.6 µM
same,TGI,MDA-MB-231 breast,33.3 µM
same,TGI,OVCAR-3 ovarian,29.4 µM
same,TGI,SF-295 CNS,28.2 µM
same,TGI,SK-OV-3 ovarian,45 µM
same,TGI,SK-MEL-2 melanoma,43.5 µM
same,TGI,MALME-3M melanoma,35.5 µM
same,TGI,CCRF-CEM leukemia,92.8 µM
same,TGI,SK-MEL-5 melanoma,34.7 µM
same,TGI,SF-268 CNS,38.9 µM
same,TGI,A549 NSCLC,37.9 µM
same,TGI,HCT-15 colon,31.3 µM
same,TGI,SN12C renal,29.8 µM
same,TGI,M14 melanoma,29.4 µM
same,TGI,HL-60(TB) leukemia,41.4 µM
same,TGI,U251 CNS,38.1 µM
same,TGI,786-0 renal,28.9 µM
same,TGI,HOP-92 NSCLC,32.3 µM
same,TGI,HS 578T breast,46.5 µM
same,TGI,UACC-257 melanoma,43.1 µM
same,TGI,SNB-75 CNS,30.5 µM
same,TGI,OVCAR-5 ovarian,33.6 µM
same,TGI,UACC-62 melanoma,35.4 µM
same,TGI,MDA-MB-435,30.6 µM
same,TGI,TK-10 renal,34 µM
same,TGI,EKVX NSCLC,36.8 µM
same,TGI,SW-620 colon,46.4 µM
same,TGI,SK-MEL-28 melanoma,30.7 µM
same,TGI,T-47D breast,55.5 µM
same,TGI,NCI-H23 lung,40.3 µM
same,TGI,MDA-N,35.1 µM
same,TGI,DU-145 prostate,31.4 µM
same,TGI,NCI-H226 lung,32.6 µM
same,TGI,CAKI-1 renal,40.4 µM
same,TGI,OVCAR-4 ovarian,42.8 µM
same,TGI,RXF 393 renal,38.3 µM
same,TGI,COLO 205 colon,29.6 µM
same,TGI,ACHN renal,27.5 µM
same,TGI,MCF7 breast,40.2 µM
same,TGI,MOLT-4 leukemia,85.3 µM
CS(=O)(=O)OCCN1CCC2(CC1)SSC1(CCN(CCOS(C)(=O)=O)CC1)S2,TGI,A498 renal,56.1 µM
same,TGI,K-562 leukemia,> 100 µM
same,TGI,PC-3 prostate,> 100 µM
same,TGI,RPMI-8226 leukemia,29.6 µM
same,TGI,LOX IMVI melanoma,97.8 µM
same,TGI,SF-539 CNS,> 100 µM
same,TGI,IGROV1 ovarian,> 100 µM
same,TGI,NCI-H460 lung,> 100 µM
same,TGI,SR leukemia,65.9 µM
same,TGI,SNB-19 CNS,> 100 µM
same,TGI,HT29 colon,> 100 µM
same,TGI,OVCAR-8 ovarian,> 100 µM
same,TGI,NCI/ADR-RES ovarian,> 100 µM
same,TGI,HOP-62 NSCLC,> 100 µM
same,TGI,UO-31 renal,> 100 µM
same,TGI,KM12 colon,> 100 µM
same,TGI,HCT-116 colon,> 100 µM
same,TGI,MDA-MB-231 breast,> 100 µM
same,TGI,OVCAR-3 ovarian,99.7 µM
same,TGI,SF-295 CNS,> 100 µM
same,TGI,SK-OV-3 ovarian,> 100 µM
same,TGI,SK-MEL-2 melanoma,> 100 µM
same,TGI,MALME-3M melanoma,68.1 µM
same,TGI,SK-MEL-5 melanoma,> 100 µM
same,TGI,SF-268 CNS,58.1 µM
same,TGI,BT-549 breast,> 100 µM
same,TGI,A549 NSCLC,> 100 µM
same,TGI,HCT-15 colon,> 100 µM
same,TGI,SN12C renal,> 100 µM
same,TGI,M14 melanoma,> 100 µM
same,TGI,HL-60(TB) leukemia,59.7 µM
same,TGI,U251 CNS,> 100 µM
same,TGI,786-0 renal,> 100 µM
same,TGI,HS 578T breast,> 100 µM
same,TGI,UACC-257 melanoma,> 100 µM
same,TGI,SNB-75 CNS,> 100 µM
same,TGI,OVCAR-5 ovarian,93.2 µM
same,TGI,UACC-62 melanoma,> 100 µM
same,TGI,MDA-MB-435,> 100 µM
same,TGI,TK-10 renal,55.8 µM
same,TGI,SW-620 colon,> 100 µM
same,TGI,SK-MEL-28 melanoma,> 100 µM
same,TGI,NCI-H23 lung,> 100 µM
same,TGI,MDA-N,> 100 µM
same,TGI,CAKI-1 renal,44.9 µM
same,TGI,OVCAR-4 ovarian,> 100 µM
same,TGI,COLO 205 colon,> 100 µM
same,TGI,ACHN renal,> 100 µM
same,TGI,MCF7 breast,44.9 µM
same,TGI,MOLT-4 leukemia,> 100 µM
